The assay has as its target T1, PH domain deleted SHIP1 (Mus musculus, UniProt Q9ES52, DEL292-400/E403A/P402A/Q401A).
T1 construct: Full length, wild-type SHIP1 enzyme (wt) or SHIP1 enzyme in which the PH or C2 domains were deleted; His6 (N); made in house; 293T cells are stated only for the wild-type enzyme
T1 sequence (Q9ES52 with tags, fused parts or gaps DEL292-400/Q401A/P402A/E403A): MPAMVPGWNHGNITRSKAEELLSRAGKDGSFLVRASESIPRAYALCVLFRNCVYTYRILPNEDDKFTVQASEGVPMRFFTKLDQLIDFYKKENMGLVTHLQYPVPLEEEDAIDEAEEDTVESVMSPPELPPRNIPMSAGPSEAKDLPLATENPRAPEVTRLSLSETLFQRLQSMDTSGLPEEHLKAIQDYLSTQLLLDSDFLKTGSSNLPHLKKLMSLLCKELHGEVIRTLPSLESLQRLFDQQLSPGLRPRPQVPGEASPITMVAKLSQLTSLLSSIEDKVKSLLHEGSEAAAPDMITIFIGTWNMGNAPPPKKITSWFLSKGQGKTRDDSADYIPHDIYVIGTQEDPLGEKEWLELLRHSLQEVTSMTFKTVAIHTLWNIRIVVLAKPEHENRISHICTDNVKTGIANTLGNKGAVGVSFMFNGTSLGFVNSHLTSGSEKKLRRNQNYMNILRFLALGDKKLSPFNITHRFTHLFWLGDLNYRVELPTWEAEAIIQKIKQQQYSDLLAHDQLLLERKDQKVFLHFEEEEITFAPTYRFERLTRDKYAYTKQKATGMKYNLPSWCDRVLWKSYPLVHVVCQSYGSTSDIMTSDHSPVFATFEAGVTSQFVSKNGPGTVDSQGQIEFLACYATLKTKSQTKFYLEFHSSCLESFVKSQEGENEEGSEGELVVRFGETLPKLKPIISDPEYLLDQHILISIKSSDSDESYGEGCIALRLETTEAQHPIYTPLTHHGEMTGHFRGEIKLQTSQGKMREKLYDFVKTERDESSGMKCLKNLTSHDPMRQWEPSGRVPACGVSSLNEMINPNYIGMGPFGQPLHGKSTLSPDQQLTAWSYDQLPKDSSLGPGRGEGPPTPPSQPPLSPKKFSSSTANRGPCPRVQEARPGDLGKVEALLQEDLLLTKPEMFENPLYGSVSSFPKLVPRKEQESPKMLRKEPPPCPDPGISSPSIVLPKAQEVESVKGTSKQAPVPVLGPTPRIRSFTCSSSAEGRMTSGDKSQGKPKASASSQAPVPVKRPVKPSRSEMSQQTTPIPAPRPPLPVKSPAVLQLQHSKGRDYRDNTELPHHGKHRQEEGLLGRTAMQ
Description: Scintillation proximity assay, PH domain deleted SHIP1. Type of assay: binding. (In general: SPA uses beads or plates that emit light when radiolabelled molecules are held near them.)

With `Cc1cc(O)cc2c1[C@]1(C)CC[C@H]3C(C)(C)CCC[C@]3(C)[C@H]1C2` [AQX-MN100], the “binding of [3H]-AQX-MN100 to SHIP1 with PH domain deleted” value was “attenuates the ability of SHIP1 to bind”.

The values are drawn from patent US8956824B2, “Methods for identifying allosteric modulators of ship polypeptides” (British Columbia Cancer Agency Branch, priority 2006, dated 2015).
